From patent US20250195530A1, “POLQ INHIBITORS” (ASTRAZENECA AB, priority 2022, published 2025)

tested on: DLD-1 BRCA2−/− cells; experiment: Homologous recombination synthetic lethal inhibition of proliferation, DLD-1 BRCA2-/- (Cell Titre Glo 3D); type: cell-based; details: DLD-1 BRCA2-/- proliferation; column head only partly shown
From the text: This assay identifies anti-proliferative effects of POLQ compounds in the homologous recombination deficient colorectal cell line DLD-1 BRCA2−/− over 8-9 population doublings (7 days for DLD-1 and 12 days for DLD-1 BRCA2−/−). DLD1 BRCA2 wt are used as a control to detect cell toxic effects not specific to homologous recombination deficiency.
DLD-1 BRCA2−/− and DLD-1 cells were kept in continuous culture in Assay Medium (RPMI 1640 phenol red free (Sigma R7509) containing 1% GlutaMAX (Gibco 35050) and 10% Foetal Bovine Serum (Gibco 10270-106)). On the day of the assay cells in culture of ˜80-90% confluent were used. Cell monolayers were washed with 10 mL PBS, then removed and added 2 mL TrypLE Express (Gibco 12604). The cells with TrypLE Express were incubated for 5 minutes in cell culture incubator and then the detached cells resuspend in 15 mL Assay Medium. Cells were counted using a ViCell and the cell images were monitored for clumps of cells, ideally they should be single or <3 cell clusters. The cells were diluted to 3,000 cells/mL of DLD-1 BRCA2−/− and 1,500 cells/mL of DLD-1 in Assay Medium and 100 μL added per well of transparent bottomed, black, tissue culture-treated 96-well plates (CoStar, No. 3904) Assay Ready Plates. The Assay Ready Plates contain a 10 point 10 μM to 0.51 nM dose range with three-fold dilutions in DMSO with a final volume of 100 nL. The plates were incubated at 37° C. with 5% C02 for 6 days. On day 6, 100 μL/well of Assay Medium was added to duplicate Assay Ready Plates. 90 μL of culture medium was removed from the cell plates and replenished with the Assay Media and compounds from the duplicate Assay Ready Plates using the Bravo. The plates were further incubated at 37° C. with 5% CO2. On day 7 the plates containing DLD-1 and Cell Titre Glo 3D (Promega G9683) were equilibrated to room temperature, then 60 μL of Cell Titre Glo 3D was added per well and incubated on a shaking platform for 30 min. Plates were read on the Envision measuring luminescence for 1 second per well. On day 12 the plates containing DLD-1 BRCA2−/− cells and Cell Titre Glo 3D (Promega G9683) were equilibrated to room temperature, then 60 μL Cell Titre Glo 3D added per well and incubated on a shaking platform for 30 min. Plates were read on the Envision measuring luminescence for 1 second per well. The data was exported into a suitable software package (such as Genedata) to perform curve fitting analysis. Inhibition of cell proliferation was expressed as an IC5o value and was determined by calculation of the concentration of compound that was required to give a 50% reduction of the average maximum Total Intensity signal.

With CC(CCOc1ccc(-c2nc3c(OC4(C)CC4)ncnc3n2Cc2cccc(F)c2F)c(Cl)c1)C(=O)O (single isomer, unassigned) [Example T262, 4-(3-chloro-4-(9-(2,3-difluorobenzyl)-6-(1-methylcyclopropoxy)-9H-purin-8-yl)phenoxy)-2-methylbutanoic acid] the “POLQ PD Prolif Lumin” value was 6.3.

same assay, conditions: Homo sapiens, DLD-1, 288 h, DLD-1 BRCA2−/− cells, 12 days; read-out: POLQ PD Prolif Lumin BRCA2 −/− mean pIC50 (converted)

CC(Cc1ccccn1)n1c(-c2ccc(OCCN3CCNCC3)cc2Cl)nc2c(OC3(C)CC3)ncnc21 (single isomer, unassigned) [Example S7, 8-(2-chloro-4-(2-(piperazin-1-yl)ethoxy)phenyl)-6-(1-methylcyclopropoxy)-9-(1-(pyridin-2-yl)propan-2-yl)-9H-purine] gave an IC50 of 6310 nM.

same assay, conditions: Homo sapiens, DLD-1, DLD-1 BRCA2-/- proliferation; column head only partly shown; read-out: POLQ PD Prolif Lumin (converted)

CC(CCOc1ccc(-c2nc3c(OC4(C)CC4)ncnc3n2Cc2cccc(F)c2F)c(Cl)c1)C(=O)O (single isomer, unassigned) [Example T261, 4-(3-chloro-4-(9-(2,3-difluorobenzyl)-6-(1-methylcyclopropoxy)-9H-purin-8-yl)phenoxy)-2-methylbutanoic acid] and CC(CCOc1ccc(-c2nc3c(OC4(C)CC4)ncnc3n2Cc2cccc(Cl)c2F)c(Cl)c1)C(=O)O (single isomer, unassigned) [Example T270, 4-(3-chloro-4-(9-(3-chloro-2-fluorobenzyl)-6-(1-methylcyclopropoxy)-9H-purin-8-yl)phenoxy)-2-methylbutanoic acid] are within 1.5-fold of each other in IC50: 631 nM for the first, 501 nM for the second.

CC(CCOc1ccc(-c2nc3c(OC4(C)CC4)ncnc3n2Cc2c(F)cccc2F)c(Cl)c1)C(=O)O (single isomer, unassigned) [Example T263, 4-(3-chloro-4-(9-(2,6-difluorobenzyl)-6-(1-methylcyclopropoxy)-9H-purin-8-yl)phenoxy)-2-methylbutanoic acid] was tested, and the IC50 was 794 nM.

same assay, conditions: Homo sapiens, DLD-1, DLD-1 BRCA2 −/−, mean; read-out: POLQ PD Prolif Lumin BRCA2 −/− mean pIC50 (converted)

CC(CCOc1ccc(-c2nc3c(OC4(C)CC4)ncnc3n2Cc2cc(C#N)ccc2F)c(Cl)c1)C(=O)O (racemic) [Example U18, 4-(3-chloro-4-(9-(5-cyano-2-fluorobenzyl)-6-(1-methylcyclopropoxy)-9H-purin-8-yl)phenoxy)-2-methylbutanoic acid] and Cc1ccc(Cl)cc1Cn1c(-c2ccc(OCCC(C)C(=O)O)cc2Cl)nc2c(OC3(C)CC3)ncnc21 (racemic) [Example U36, 4-(3-chloro-4-(9-(5-chloro-2-methylbenzyl)-6-(1-methylcyclopropoxy)-9H-purin-8-yl)phenoxy)-2-methylbutanoic acid] are within 1.5-fold of each other in IC50: 398 nM for the first, 316 nM for the second.

Compared with CC(COc1ccc(-c2nc3c(OC4(C)CC4)ncnc3n2Cc2ccccc2C#N)c(Cl)c1)CC(=O)O (racemic) [Example U25, 4-(3-chloro-4-(9-(2-cyanobenzyl)-6-(1-methylcyclopropoxy)-9H-purin-8-yl)phenoxy)-3-methylbutanoic acid], CC(COc1ccc(-c2nc3c(OC4(C)CC4)ncnc3n2Cc2cc(Cl)ccc2F)c(Cl)c1)CC(=O)O (racemic) [Example U45, 4-(3-chloro-4-(9-(5-chloro-2-fluorobenzyl)-6-(1-methylcyclopropoxy)-9H-purin-8-yl)phenoxy)-3-methylbutanoic acid] is 5-fold lower in IC50: 398 nM for the first, 79.4 nM for the second.

CC(CCOc1ccc(-c2nc3c(OC4(C)CC4)ncnc3n2Cc2cc(C(F)(F)F)cc(Cl)c2F)c(Cl)c1)C(=O)O (racemic) [Example U35, 4-(3-chloro-4-(9-(3-chloro-2-fluoro-5-(trifluoromethyl)benzyl)-6-(1-methylcyclopropoxy)-9H-purin-8-yl)phenoxy)-2-methylbutanoic acid] and COc1c(F)cc(Cl)cc1Cn1c(-c2ccc(OCCC(C)C(=O)O)cc2Cl)nc2c(OC3(C)CC3)ncnc21 (racemic) [Example U61, 4-(3-chloro-4-(9-(5-chloro-3-fluoro-2-methoxybenzyl)-6-(1-methylcyclopropoxy)-9H-purin-8-yl)phenoxy)-2-methylbutanoic acid] are the same in IC50: 158 nM for the first, 158 nM for the second.

First: CC(CCOc1ccc(-c2nc3c(OC4(C)CC4)ncnc3n2Cc2cccc(Cl)c2C#N)c(Cl)c1)C(=O)O (racemic) [Example U37, 4-(3-chloro-4-(9-(3-chloro-2-cyanobenzyl)-6-(1-methylcyclopropoxy)-9H-purin-8-yl)phenoxy)-2-methylbutanoic acid]
Second: CCOc1ccc(Cl)cc1Cn1c(-c2ccc(OCCC(C)C(=O)O)cc2Cl)nc2c(OC3(C)CC3)ncnc21 (racemic) [Example U59, 4-(3-chloro-4-(9-(5-chloro-2-ethoxybenzyl)-6-(1-methylcyclopropoxy)-9H-purin-8-yl)phenoxy)-2-methylbutanoic acid]
The IC50 of the first is 32-fold higher: 2000 nM for the first, 63.1 nM for the second.

Compared with COc1ncc(Cl)cc1Cn1c(-c2ccc(OCCC(C)C(=O)O)cc2Cl)nc2c(OC3(C)CC3)ncnc21 (racemic) [Example U53, 4-(3-chloro-4-(9-((5-chloro-2-methoxypyridin-3-yl)methyl)-6-(1-methylcyclopropoxy)-9H-purin-8-yl)phenoxy)-2-methylbutanoic acid], CC(CCOc1ccc(-c2nc3c(OC4(C)CC4)ncnc3n2Cc2cc(Cl)ccc2OC(F)F)c(Cl)c1)C(=O)O (racemic) [Example U60, 4-(3-chloro-4-(9-(5-chloro-2-(difluoromethoxy)benzyl)-6-(1-methylcyclopropoxy)-9H-purin-8-yl)phenoxy)-2-methylbutanoic acid] is 2.5-fold lower in IC50: 316 nM for the first, 126 nM for the second.

same assay, conditions: Homo sapiens, DLD-1, first proliferation column (c5), taken as DLD-1 BRCA2-/-; read-out: POLQ PD Prolif Lumin (converted)

Work on Cc1ccnc(Cn2c(-c3ccc(O[C@@H]4CC[C@@H](O)C4)cc3Cl)nc3c(OC4(C)CC4)ncnc32)c1 (relative stereo) [Example T330, rel-(1R,3R)-3-(3-chloro-4-(6-(1-methylcyclopropoxy)-9-((4-methylpyridin-2-yl)methyl)-9H-purin-8-yl)phenoxy)cyclopentan-1-ol] yielded an IC50 of 200 nM.

same assay, conditions: Homo sapiens, DLD-1, first proliferation column (c5); DLD-1 BRCA2-/-; read-out: POLQ PD Prolif Lumin (converted)

First: Cc1ccnc(Cn2c(-c3ccc(OCC(F)CO)cc3Cl)nc3c(OC4(C)CC4)ncnc32)c1 (single isomer, unassigned) [Example T109, 3-(3-chloro-4-(6-(1-methylcyclopropoxy)-9-((4-methylpyridin-2-yl)methyl)-9H-purin-8-yl)phenoxy)-2-fluoropropan-1-ol]
Second: Cc1ccnc(Cn2c(-c3ccc(OC(C)CO)cc3Cl)nc3c(OC4(C)CC4)ncnc32)c1 (single isomer, unassigned) [Example T127, 2-(3-chloro-4-(6-(1-methylcyclopropoxy)-9-((4-methylpyridin-2-yl)methyl)-9H-purin-8-yl)phenoxy)propan-1-ol]
The IC50 of the first is 1.6-fold lower: 158 nM for the first, 251 nM for the second.

Cc1ccnc(Cn2c(-c3ccc(C4CCC(=O)N4)cc3Cl)nc3c(OC4(C)CC4)ncnc32)c1 (single isomer, unassigned) [Example T172, 5-(3-chloro-4-(6-(1-methylcyclopropoxy)-9-((4-methylpyridin-2-yl)methyl)-9H-purin-8-yl)phenyl)pyrrolidin-2-one] and Cc1ccnc(Cn2c(-c3ccc(C4CNC(=O)C4)cc3Cl)nc3c(OC4(C)CC4)ncnc32)c1 (single isomer, unassigned) [Example T174, 4-(3-chloro-4-(6-(1-methylcyclopropoxy)-9-((4-methylpyridin-2-yl)methyl)-9H-purin-8-yl)phenyl)pyrrolidin-2-one] are within 1.5-fold of each other in IC50: 398 nM for the first, 501 nM for the second.

same assay, conditions: Homo sapiens, DLD-1, first proliferation column; DLD-1 BRCA2-/-; read-out: POLQ PD Prolif Lumin (converted)

Work on CC1(Oc2ncnc3c2nc(-c2ccc(OCCN4C[C@H]5CC[C@@H]4CN5)cc2Cl)n3Cc2ccccc2)CC1 (relative stereo) [Example T604, rel-(1R,4R)-2-(2-(4-(9-benzyl-6-(1-methylcyclopropoxy)-9H-purin-8-yl)-3-chlorophenoxy)ethyl)-2,5-diazabicyclo[2.2.2]octane] yielded an IC50 of 251 nM.
